Experimental data published in US9402821B2, “Methods and pharmaceutical compositions for treatment of cystic fibrosis” (INSERM (Institut National de la sante et de la Recherche …, priority 2012, dated 2016).

Columns and labels:
Assay type in all cases: cell-based
[1] = system: IL-8 secretion; assay: IL-8 release into supernatant of cell cultures; conditions: TNFα; Beas2B, Calu-3 and heterologous HeLa systems (FIG. 2C)
Method: Cells were transiently transfected by the short IL-8 promoter-firefly luciferase reporter and renilla luciferase reference and inflammation was induced by 10 ng/ml TNFα for 1 h. A. HeLa cells were pre-treated with diluent or different doses of sulindac 1 h before inflammation induction and 4 h after. IL-8 promoter activity in cells treated with sulindac+TNFα was expressed in percent of diluent+TNFα. B. After treatment, HeLa Ctr cells were lysed with TRIzol (Invitrogen). Total RNA was extracted, and 1 μg of total RNA was reverse transcribed with a reverse transcription kit. IL-8 mRNA expression was quantified by real-time quantitative PCR (qPCR). The comparative threshold cycle (CT) method was used for relative quantification of PCR products after IL-8 was normalised to TBP (ΔCt=CtIL-8−CtTBP). IL-8 mRNA data in treated samples were expressed in fold changes over controls: fold changetreated sample=2^−ΔΔCt (with ΔΔCt=ΔCtreated sample−ΔCtcontrol). C After treatment, IL-8 in supernatant was measured by ELISA. The IL-8 stimulation of cells treated with test drug +TNFα were expressed as fold compared to drug −TNFα. […]
IL-8 secretion into the supernatant of cells cultures was measured with the IMMULITE 1000 Automated Analyser (Diagnostic Products Corp) and the commercially available Immulite chemiluminescent enzyme immunometric assays (Immulite®) according to the manufacturer's instructions.

[2] = system: NF-κB transcriptional activity; assay: NF-κB firefly luciferase reporter assay, TNFα-stimulated cells; conditions: TNFα 10 ng/ml; BEAS-2B and HeLa cells with wt or deltaF508-CFTR (FIGS. 1A, B)
Method: All cells were transiently transfected by NF-κB firefly luciferase reporter and renilla luciferase reference. A. HeLa control cells (Ctr) were pre-treated with diluent (0.5%) or different doses of sulindac for 1 h and stimulated for 1 h with 10 ng/ml TNFα. After removal of TNFα, cells were incubated for 4 h with sulindac. Luciferase activity was analysed in protein extract. The NF-κB transcriptional activity in cells treated with sulindac+TNFα was expressed in percent of diluent+TNFα. B. Hela cells Wt, DF508 and Ctr were pre-treated with diluent (0.5%), ibuprofen (500 μM) or sulindac (500 μM) for 1 h and stimulated for 1 h with […] TNFα. After removal of TNFα, cells were incubated for 4 h with pharmacological treatment. The NF-κB transcriptional activity in cells treated with ibuprofen+TNFα and sulindac+TNFα was expressed in percent of diluent+TNFα. Results of at least three independent experiments, means±SEM. Unilateral paired t test: * p<0.02
All cells were pre-treated with diluent (0.5%), sulindac ([…]) or sulindac sulfone (250 μM) for 1 h and stimulated for 1 h with 10 ng/ml TNFα. […]
Plasmid Constructs and Transient Transfection To assay the transcriptional activity of NF-κB, pNF-κBLuc, a luciferase reporter plasmid containing five sequential NF-κB binding sites upstream of a minimum promoter element, NF-κB-Luc (Stratagene), was used. Transcriptional activity of the IL-8 promoter was evaluated with reporter constructs consisting of the IL-8 promoter (−133 bp from the transcription start site) fused to the Luciferase gene, kindly provided by Naofumi Mukaida. […]
Cells were lysed with the Passive Lysis Buffer (Promega), and luciferase activity in the cellular extracts was determined by the Dual Luciferase Assay System (Promega) using a luminometer (Tristar; Berthold). The results were normalized to those obtained with the Renilla luciferase reference plasmid used to control the transfection efficiency, and the values were expressed as luminescence intensity (Luciferase/Renilla). […]
The transcriptional activity of NF-κB and IL-8 promoter was measured as described before. […]

[3] = system: PPAR transcriptional activity; assay: PPAR firefly luciferase reporter assay (3 PPRE motifs) in HeLa cells; conditions: sulindac 100 μM, 24 h
Method: HeLa control cells were transiently transfected by PPAR firefly luciferase reporter (3 PPRE motifs) and renilla luciferase reference. Cells were treated with diluent (0.5%), ibuprofen (500 μM) or sulindac (100 μM) for 24 h. The PPAR transcriptional activity in cells treated with ibuprofen and sulindac was expressed in percent of diluents. Results of three independent experiments, means±SEM. Unilateral paired t test: ** p<0.01.
To assay the transcriptional activity of AP-1, pAP1Luc, a luciferase reporter plasmid containing five sequential AP-1 binding sites upstream of a minimum promoter element, was used. Transcriptional activity of PPAR was evaluated with reporter constructs with three sequential PPRE consensus sequences, binding PPAR factors. Transient transfection were realized as described before. To normalize transfection efficiency, a renilla luciferase reporter construct (pRL-TK, Promega) was co-transfected with each of the firefly luciferase constructs. To induced AP-1 activity, cells were exposed to TNFα (10 ng/mL) for 1 hour. Cells were pre- and treated with sulindac, ibuprofen or vehicule control one hour before and four hours after this induction. For PPAR activity, cells were treated with pharmacological drugs for 24 hours.
Luciferase assay was realized as described before.

CC1=C(CC(=O)O)c2cc(F)ccc2/C1=C\c1ccc([S+](C)[O-])cc1 (stereo not drawn) [sulindac, (Z)-5-fluoro-2-methyl-1-[p-(methylsulfinyl)benzylidene]-indene-3-acetic acid]
IL-8 secretion [1]: decrease of IL-8 secretion | transcriptional activity of NF-κB [2]: inhibits transcriptional activity of NF-κB | PPAR transcriptional activity [3]: increase in the transcriptional activity of PPAR
